Key:
mouse = assay: Mouse bone formation assay, micro-CT after complete dosing schedule; type: in vivo; details: versus control solution
From the text: (§1) Compounds useful in the methods of the present invention can be identified via a variety of methods known to one of skill in the art. Several exemplary methods for identifying such antagonists are described herein, including cell-based and in vitro techniques (Journal of Bone and Mineral Research 2006, 21(11), 1738-1749). A general method of identifying SOST antagonists involves evaluating the effects of antagonist candidates on bone formation under controlled conditions. Preferably bone formation is determined using micro-CT techniques on live animals. Preferred animals include rodents, more preferred are primates. Femur, tibia and vertebrae bones are particularly useful subjects for such study.
Briefly, the test animal is treated with a predetermined dose of a SOST antagonist candidate. […]
Once the dosing schedule has been completed, both test and control animals are examined to determine the quantity of bone formation present. […] Where necessary, levels of bone formation can be calculated by determining the volume of bone formation present in each animal. […]
For example, the mouse test animal is treated with a predetermined dose of a SOST antagonist candidate for a complete dosing schedule. […] Once the dosing schedule has been completed, both test and control animals are examined with sacrifice using micro-CT to determine the quantity of bone formation present.

Wnt pathway = assay: Modulation of the Wnt pathway (FIGS. 1 and 2); details: doses of 2.5 ng (low), 60 ng (medium), 125 ng (high)
From the text: as §1

C57BL/6 mice [1] = assay: Serum osteocalcin bone formation marker, EIA Elisa, in treated mice; type: in vivo, mouse; details: four month old male C57BL/6 mice, 5 mg/kg, daily i.p. for 30 days
From the text: […] Study endpoints included a biochemical marker of bone formation; osteocalcin, measured by EIA Elisa, and measurement of tibia trabecular bone volume by mico-CT analysis.

C57BL/6 mice [2] = assay: Bone volume in treated mice by pQCT / micro-CT analysis; type: in vivo, mouse; details: four month old male C57BL/6 mice, 0.1 mg/kg, daily i.p. for 30 days
Description: Four month old male C57BL/6 mice were treated daily with saline vehicle or the sclerostin inhibitor of trimeprazine tartrate at 0.1 mg/kg (via i.p) for 30 days. […]

Compound | bone growth (quantity of bone formation present) (mouse) | modulation of the Wnt pathway to promote bone growth (Wnt pathway) | percent increase in serum osteocalcin bone formation marker over saline controls (C57BL/6 mice [1]) | increase in bone volume for the femur over baseline controls (C57BL/6 mice [2])
CC(CN(C)C)CN1c2ccccc2Sc2ccccc21 (stereo not drawn) [trimeprazine] | promoting bone growth | modulating the Wnt pathway |  | 
CCN(CC)C(C)CN1c2ccccc2Sc2ccccc21 (stereo not drawn) [ethopropazine] | promoting bone growth | modulating the Wnt pathway |  | 
trimeprazine tartrate |  |  | 46% | about 8%

Source: patent US20100055183A1 (OsteoGeneX Inc., priority 2008, published 2010)
